{"source": "patent US20110070314A1", "about": "(priority 2009, published 2011)", "key": {"brain tumors": {"tested_on": "brain tumors", "details": "human, in vivo"}, "U-87MG cells": {"tested_on": "U-87MG cells", "type": "cell-based, human"}, "U373 cells": {"tested_on": "U373 cells", "type": "cell-based, human"}, "[1]": {"tested_on": "U-87MG orthotopic glioblastoma", "details": "mouse, in vivo"}, "[2]": {"details": "mouse, in vivo"}, "T98G cells": {"tested_on": "T98G cells", "type": "cell-based, human"}, "[3]": {"details": "mouse, in vivo", "remark": "listed apart in the source"}, "U138 cells": {"tested_on": "U138 cells", "type": "cell-based, human"}, "[4]": {"tested_on": "U-87MG orthotopic glioblastoma", "details": "mouse, in vivo", "remark": "listed apart in the source"}}}
{"substance": "sodium meta arsenite", "values": [{"measurement": "MRI finding on brain tumor", "setting": "brain tumors", "result": "brain tumor was completely gone."}, {"measurement": "Side effects", "setting": "brain tumors", "result": "Pt # 1 did not find any particular"}, {"measurement": "Time until pain lessened", "setting": "brain tumors", "result": "side effects, and within 5 days them"}, {"measurement": "Effect on lung cancer", "setting": "brain tumors; iv", "result": "conditions appear to be stable."}, {"measurement": "Effect on tumor in the brain", "setting": "brain tumors; iv", "result": "the tumor in the brain disappeared"}, {"measurement": "Anticancer effect (cell viability) vs control", "setting": "U-87MG cells", "result": "significant anticancer effects"}, {"measurement": "Dose dependence of anticancer effect", "setting": "U-87MG cells", "result": "dose-dependent anticancer effects"}, {"measurement": "Anticancer effect (cell viability) vs control", "setting": "U373 cells", "result": "significant anticancer effects"}, {"measurement": "Dose dependence of anticancer effect", "setting": "U373 cells", "result": "dose-dependent anticancer effects"}, {"measurement": "Body weight difference between groups", "setting": "[1]", "result": "no significant difference"}, {"measurement": "Inhibition of tumor growth", "setting": "[1]; po, 1.25 mg/kg", "result": 28, "unit": "%"}, {"measurement": "Tumor mass", "setting": "[1]; po, 1.25 mg/kg", "result": "40.2±12.3", "unit": "mm^3"}, {"measurement": "MRI imaging of tumor mass", "setting": "[1]; po, 5 mg/kg", "result": "decrease of tumor mass"}, {"measurement": "Adverse effects following oral and IV administration", "setting": "[2]", "result": "No adverse effects were observed"}, {"measurement": "Clinical signs during testing", "setting": "[2]", "result": "No clinical signs were observed"}, {"measurement": "Anticancer effect (cell viability) vs control", "setting": "T98G cells", "result": "significant anticancer effects"}, {"measurement": "Dose dependence of anticancer effect", "setting": "T98G cells", "result": "dose-dependent anticancer effects"}, {"measurement": "Crossing of the blood brain barrier", "setting": "[3]", "result": "can readily cross the blood brain barrier"}, {"measurement": "Anticancer effect (cell viability) vs control", "setting": "U138 cells", "result": "significant anticancer effects"}, {"measurement": "Dose dependence of anticancer effect", "setting": "U138 cells", "result": "dose-dependent anticancer effects"}, {"measurement": "Serum ALT and AST difference between the groups", "setting": "[4]", "result": "no significant difference"}, {"measurement": "Anticancer effect", "setting": "[4]; po, 10 mg/kg", "result": "no anticancer effect"}]}
